Species: Rattus norvegicus
Assay: Open TG-GATES - Regimen: Single
Assay type: toxicity, organism-based, Sprague-Dawley
Design: regimen Single, gender Male, age 6 weeks
Conditions: in vivo, po, 0 mg/kg, route gavage, dose level Control; for APTT / Bas / Eos / Fbg / Hb / Ht / Lym / MCH / MCHC / MCV / Mono / Neu / PT / Plat / RBC / Ret / WBC: tissue Blood; for KIDNEY_L / KIDNEY_R / KIDNEY_TOTAL: tissue Kidney; for LIVER: tissue Liver; for A/G / ALP / ALT / AST / BUN / CRE / Ca / Cl / DBIL / GLC / IP / K / LDH / Na / PL / RALB / TBIL / TC / TG / TP / gamma-GTP: tissue Plasma

CC(S)C(=O)NCC(=O)O (configuration not stated) [TIOPRONIN]
TERMINAL_BW (3 h): 208.8 g | APTT (3 h): 22.5 s | Bas (3 h): 0% | Eos (3 h): 0.8% | Fbg (3 h): 292.4 mg/dL | Hb (3 h): 13.1 g/dL | Ht (3 h): 40.4% | Lym (3 h): 81.6% | MCH (3 h): 20.2 pg | MCHC (3 h): 32.5% | MCV (3 h): 62.3 fL | Mono (3 h): 1.4% | Neu (3 h): 15.8% | PT (3 h): 16.1 s | Plat (3 h): 120.4 x10_4/uL | RBC (3 h): 649.6 x10_4/ul | Ret (3 h): 7.5% | WBC (3 h): 75.2 x10_2/uL | KIDNEY_L (3 h): 0.9 g | KIDNEY_R (3 h): 0.9 g | KIDNEY_TOTAL (3 h): 1.8 g | LIVER (3 h): 9.1 g | A/G (3 h): 1.2 | ALP (3 h): 2032.2 IU/L | ALT (3 h): 46 IU/L | AST (3 h): 80.4 IU/L | BUN (3 h): 11.4 mg/dL | CRE (3 h): 0.1 mg/dL | Ca (3 h): 10.7 mg/dL | Cl (3 h): 107 meq/L | DBIL (3 h): 0.002 mg/dL | GLC (3 h): 190.8 mg/dL | IP (3 h): 7.7 mg/dL | K (3 h): 4.1 meq/L | LDH (3 h): 203.8 IU/L | Na (3 h): 143.8 meq/L | PL (3 h): 128.6 mg/dL | RALB (3 h): 2.9 g/dL | TBIL (3 h): 0.02 mg/dL | TC (3 h): 70.8 mg/dL | TG (3 h): 65.4 mg/dL | TP (3 h): 5.4 g/dL | gamma-GTP (3 h): 1.8 IU/L | TERMINAL_BW (6 h): 208.1 g | APTT (6 h): 21.5 s | Bas (6 h): 0% | Eos (6 h): 0.2% | Fbg (6 h): 295.4 mg/dL | Hb (6 h): 13 g/dL | Ht (6 h): 39.8% | Lym (6 h): 83% | MCH (6 h): 21 pg | MCHC (6 h): 32.8% | MCV (6 h): 64.1 fL | Mono (6 h): 1.8% | Neu (6 h): 14.2% | PT (6 h): 15.8 s | Plat (6 h): 116.3 x10_4/uL | RBC (6 h): 621 x10_4/ul | Ret (6 h): 8.1% | WBC (6 h): 116.1 x10_2/uL | KIDNEY_L (6 h): 0.9 g | KIDNEY_R (6 h): 1 g | KIDNEY_TOTAL (6 h): 1.9 g | LIVER (6 h): 9 g | A/G (6 h): 1.2 | ALP (6 h): 1487.4 IU/L | ALT (6 h): 39 IU/L | AST (6 h): 69.6 IU/L | BUN (6 h): 10.6 mg/dL | CRE (6 h): 0.1 mg/dL | Ca (6 h): 10.5 mg/dL | Cl (6 h): 106.4 meq/L | DBIL (6 h): 0.002 mg/dL | GLC (6 h): 184.2 mg/dL | IP (6 h): 8.8 mg/dL | K (6 h): 4.4 meq/L | LDH (6 h): 154.4 IU/L | Na (6 h): 143.8 meq/L | PL (6 h): 141.4 mg/dL | RALB (6 h): 2.9 g/dL | TBIL (6 h): 0.022 mg/dL | TC (6 h): 80.2 mg/dL | TG (6 h): 72.2 mg/dL | TP (6 h): 5.3 g/dL | gamma-GTP (6 h): 1.6 IU/L | TERMINAL_BW (9 h): 209.7 g | APTT (9 h): 22.9 s | Bas (9 h): 0% | Eos (9 h): 0.8% | Fbg (9 h): 294.2 mg/dL | Hb (9 h): 12.7 g/dL | Ht (9 h): 39.4% | Lym (9 h): 81.6% | MCH (9 h): 19.9 pg | MCHC (9 h): 32.1% | MCV (9 h): 61.7 fL | Mono (9 h): 2% | Neu (9 h): 15.2% | PT (9 h): 16.2 s | Plat (9 h): 121.4 x10_4/uL | RBC (9 h): 639.2 x10_4/ul | Ret (9 h): 8.3% | WBC (9 h): 95.7 x10_2/uL | KIDNEY_L (9 h): 0.9 g | KIDNEY_R (9 h): 0.9 g | KIDNEY_TOTAL (9 h): 1.9 g | LIVER (9 h): 9.1 g | A/G (9 h): 1.1 | ALP (9 h): 1667.4 IU/L | ALT (9 h): 36.2 IU/L | AST (9 h): 65.8 IU/L | BUN (9 h): 12.2 mg/dL | CRE (9 h): 0.1 mg/dL | Ca (9 h): 10.5 mg/dL | Cl (9 h): 105 meq/L | DBIL (9 h): 0 mg/dL | GLC (9 h): 195.8 mg/dL | IP (9 h): 9.8 mg/dL | K (9 h): 4.5 meq/L | LDH (9 h): 147 IU/L | Na (9 h): 143.8 meq/L | PL (9 h): 120.2 mg/dL | RALB (9 h): 2.8 g/dL | TBIL (9 h): 0.012 mg/dL | TC (9 h): 64.8 mg/dL | TG (9 h): 64.2 mg/dL | TP (9 h): 5.3 g/dL | gamma-GTP (9 h): 1.4 IU/L | TERMINAL_BW (24 h): 219.9 g | APTT (24 h): 21.2 s | Bas (24 h): 0% | Eos (24 h): 1% | Fbg (24 h): 307 mg/dL | Hb (24 h): 12.9 g/dL | Ht (24 h): 39.6% | Lym (24 h): 77.8% | MCH (24 h): 21.2 pg | MCHC (24 h): 32.7% | MCV (24 h): 64.7 fL | Mono (24 h): 3% | Neu (24 h): 17.4% | PT (24 h): 16.4 s | Plat (24 h): 115.1 x10_4/uL | RBC (24 h): 612 x10_4/ul | Ret (24 h): 7.6% | WBC (24 h): 103.4 x10_2/uL | KIDNEY_L (24 h): 1 g | KIDNEY_R (24 h): 1 g | KIDNEY_TOTAL (24 h): 2 g | LIVER (24 h): 10.1 g | A/G (24 h): 1.1 | ALP (24 h): 1636.2 IU/L | ALT (24 h): 44 IU/L | AST (24 h): 74.2 IU/L | BUN (24 h): 16.6 mg/dL | CRE (24 h): 0.2 mg/dL | Ca (24 h): 10.7 mg/dL | Cl (24 h): 105.6 meq/L | DBIL (24 h): 0 mg/dL | GLC (24 h): 196.4 mg/dL | IP (24 h): 7.1 mg/dL | K (24 h): 4.4 meq/L | LDH (24 h): 179.8 IU/L | Na (24 h): 142 meq/L | PL (24 h): 135.2 mg/dL | RALB (24 h): 2.8 g/dL | TBIL (24 h): 0.004 mg/dL | TC (24 h): 75.2 mg/dL | TG (24 h): 76.8 mg/dL | TP (24 h): 5.4 g/dL | gamma-GTP (24 h): 1.4 IU/L
